This note sets out measurements from ChEMBL document CHEMBL5096238 (J Med Chem, 2022).

Series [1] relates to BaF3. In words: cells. The settings on record: Mus musculus, BaF3, 72 h.
Series [2] deals with BaF3. Description: cells. The settings on record: Mus musculus, BaF3, 72 h. This is another data set of the same source.
In series [3] the test system is BaF3. In words: cells. The settings on record: Mus musculus, BaF3, 72 h. This is another data set of the same source.
Series [4] concerns Hs746T. Description: cells. The conditions noted are these: Homo sapiens, 120 h.
The test system of series [5] is AGS. In words: cells. The settings on record: Homo sapiens, 120 h.
Series [6] concerns SNU-16. Description: cells. The conditions noted are these: Homo sapiens, SNU-16, 120 h.
The test system of series [7] is BaF3. Description: cells. The settings on record: Mus musculus, BaF3, 72 h. This is another data set of the same source.
Series [8] relates to BaF3. In words: cells. The settings on record: Mus musculus, BaF3, 72 h. The source holds these as a separate data set.
Series [9] deals with BaF3. Description: cells. The settings on record: Mus musculus, BaF3, 72 h. The source holds these as a separate data set.
The subject of series [10] is BaF3. In words: cells. The settings on record: Mus musculus, BaF3, 72 h. The source holds these as a separate data set.
For series [11], the system named is BaF3. Description: cells. The settings on record: Mus musculus, BaF3, 72 h. This is another data set of the same source.
A short description of series [12]: Half life in Sprague-Dawley rat at 10 mg/kg, ip measured for 24 hrs by LC-MS/MS analysis. It counts as ADME, organism-based. The conditions noted are these: in vivo.
Series [13] in a line: MRT (0 to t) in Sprague-Dawley rat at 10 mg/kg, po measured for 24 hrs by LC-MS/MS analysis. It counts as ADME, organism-based. The settings on record: in vivo.
The subject of series [14] is BaF3. Description: Induction of apoptosis in mouse BaF3 cells harboring wild type Tpr-Met fusion protein assessed as viable cells at 10 nM incubated for 48 hrs by Annexin V/7-AAD staining based flow cytometry analysis (reference value: 89.76%). It counts as functional. The conditions noted are these: read-out: Activity. For orientation: In flow cytometry, cells or beads pass a laser one at a time.

A short description of series [15]: Cmax in Sprague-Dawley rat at 10 mg/kg, po measured for 24 hrs by LC-MS/MS analysis. It counts as ADME, organism-based. On the set-up: dose 10 mg/kg, time 24 hrs, route po. The settings on record: in vivo.
The nature of series [16]: Cmax in Sprague-Dawley rat at 2 mg/kg, iv measured for 24 hrs by LC-MS/MS analysis. The series is classed as ADME, organism-based. On the set-up: dose 2 mg/kg, time 24 hrs, route iv. The conditions noted are these: in vivo.
In series [17] the target is Cytochrome P450 2D6 (Homo sapiens, UniProt P10635). Description: Inhibition of CYP2D6 (unknown origin) in microsomes preincubated for 5 mins followed by NADPH addition by LC-MS/MS analysis. The series is classed as ADME, Microsome.
The target of series [18] is T1, Hepatocyte growth factor receptor (Homo sapiens, UniProt P08581). The conditions noted are these: Hs746T, dose 1.1-30 nM, time 12.0 hrs.
T1 sequence (P08581 whole entry): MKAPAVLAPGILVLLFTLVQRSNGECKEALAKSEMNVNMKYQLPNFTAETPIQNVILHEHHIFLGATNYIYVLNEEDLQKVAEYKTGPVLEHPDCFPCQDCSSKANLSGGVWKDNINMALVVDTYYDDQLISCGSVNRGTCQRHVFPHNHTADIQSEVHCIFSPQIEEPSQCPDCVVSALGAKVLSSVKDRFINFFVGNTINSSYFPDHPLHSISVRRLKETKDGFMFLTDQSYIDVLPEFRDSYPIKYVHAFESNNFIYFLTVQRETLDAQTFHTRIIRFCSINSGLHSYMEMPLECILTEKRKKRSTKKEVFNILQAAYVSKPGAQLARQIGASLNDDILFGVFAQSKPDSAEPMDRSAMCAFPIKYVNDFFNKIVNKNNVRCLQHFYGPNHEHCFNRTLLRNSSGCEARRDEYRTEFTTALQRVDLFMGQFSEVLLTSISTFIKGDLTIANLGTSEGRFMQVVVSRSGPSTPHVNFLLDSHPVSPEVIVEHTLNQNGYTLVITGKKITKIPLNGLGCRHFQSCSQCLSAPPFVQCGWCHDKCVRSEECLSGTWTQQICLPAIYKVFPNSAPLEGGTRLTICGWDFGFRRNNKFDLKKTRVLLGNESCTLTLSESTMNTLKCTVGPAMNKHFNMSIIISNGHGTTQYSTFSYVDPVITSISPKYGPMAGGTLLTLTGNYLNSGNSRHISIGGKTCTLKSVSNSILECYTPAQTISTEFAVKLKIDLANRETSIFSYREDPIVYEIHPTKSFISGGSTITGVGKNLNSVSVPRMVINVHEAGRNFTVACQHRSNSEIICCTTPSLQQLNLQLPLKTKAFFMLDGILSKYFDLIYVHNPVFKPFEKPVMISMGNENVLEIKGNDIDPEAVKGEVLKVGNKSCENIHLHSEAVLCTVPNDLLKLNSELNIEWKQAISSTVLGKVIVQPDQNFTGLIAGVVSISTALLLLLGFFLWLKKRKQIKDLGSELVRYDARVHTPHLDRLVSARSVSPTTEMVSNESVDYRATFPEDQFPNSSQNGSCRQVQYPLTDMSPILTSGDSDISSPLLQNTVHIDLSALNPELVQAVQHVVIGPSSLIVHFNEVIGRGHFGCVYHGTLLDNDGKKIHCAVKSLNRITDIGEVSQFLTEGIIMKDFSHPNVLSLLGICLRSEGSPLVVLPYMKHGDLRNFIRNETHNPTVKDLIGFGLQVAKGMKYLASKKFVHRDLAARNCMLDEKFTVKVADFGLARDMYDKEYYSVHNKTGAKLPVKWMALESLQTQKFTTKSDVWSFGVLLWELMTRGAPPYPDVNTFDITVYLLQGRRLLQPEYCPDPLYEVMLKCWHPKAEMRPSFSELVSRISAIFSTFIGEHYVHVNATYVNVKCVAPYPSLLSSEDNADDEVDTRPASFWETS
A short description of series [19]: Clearance in Sprague-Dawley rat at 2 mg/kg, iv measured for 24 hrs by LC-MS/MS analysis. It counts as ADME, organism-based. The conditions noted are these: in vivo.
For series [20], the system named is BaF3. Description: Induction of apoptosis in mouse BaF3 cells harboring wild type Tpr-Met fusion protein assessed as viable cells at 20 nM incubated for 48 hrs by Annexin V/7-AAD staining based flow cytometry analysis (reference value: 89.76%). The series is classed as functional. The conditions noted are these: read-out: Activity.
Series [21] is described as follows: MRT (0 to t) in Sprague-Dawley rat at 2 mg/kg, iv measured for 24 hrs by LC-MS/MS analysis. It counts as ADME, organism-based. The conditions noted are these: in vivo.
Series [22] in a line: AUC(0 to t) in Sprague-Dawley rat at 10 mg/kg, ip measured for 24 hrs by LC-MS/MS analysis. The conditions noted are these: in vivo. The series is classed as ADME, organism-based. Also noted: dose 10 mg/kg, time 24 hrs, route ip.
A short description of series [23]: AUC(0 to t) in Sprague-Dawley rat at 2 mg/kg, iv measured for 24 hrs by LC-MS/MS analysis. On the set-up: time 24 hrs, dose 2 mg/kg, route iv. The series is classed as ADME, organism-based. The conditions noted are these: in vivo.
Series [24] in a line: Oral bioavailability in Sprague-Dawley rat at 10 mg/kg measured for 24 hrs by LC-MS/MS analysis. The settings on record: in vivo. The series is classed as ADME, organism-based.
Series [25] can be described thus: Tmax in Sprague-Dawley rat at 2 mg/kg, iv measured for 24 hrs by LC-MS/MS analysis. It counts as ADME, organism-based. The conditions noted are these: in vivo.
The nature of series [26]: Half life in Sprague-Dawley rat at 2 mg/kg, iv measured for 24 hrs by LC-MS/MS analysis. It counts as ADME, organism-based. The conditions noted are these: in vivo.
The target of series [27] is Hepatocyte growth factor receptor (Mus musculus) (UniProt P16056). The settings on record: BaF3, dose 1.1-30 nM, time 12.0 hrs.
Chain of Hepatocyte growth factor receptor (Mus musculus) (P16056 whole entry): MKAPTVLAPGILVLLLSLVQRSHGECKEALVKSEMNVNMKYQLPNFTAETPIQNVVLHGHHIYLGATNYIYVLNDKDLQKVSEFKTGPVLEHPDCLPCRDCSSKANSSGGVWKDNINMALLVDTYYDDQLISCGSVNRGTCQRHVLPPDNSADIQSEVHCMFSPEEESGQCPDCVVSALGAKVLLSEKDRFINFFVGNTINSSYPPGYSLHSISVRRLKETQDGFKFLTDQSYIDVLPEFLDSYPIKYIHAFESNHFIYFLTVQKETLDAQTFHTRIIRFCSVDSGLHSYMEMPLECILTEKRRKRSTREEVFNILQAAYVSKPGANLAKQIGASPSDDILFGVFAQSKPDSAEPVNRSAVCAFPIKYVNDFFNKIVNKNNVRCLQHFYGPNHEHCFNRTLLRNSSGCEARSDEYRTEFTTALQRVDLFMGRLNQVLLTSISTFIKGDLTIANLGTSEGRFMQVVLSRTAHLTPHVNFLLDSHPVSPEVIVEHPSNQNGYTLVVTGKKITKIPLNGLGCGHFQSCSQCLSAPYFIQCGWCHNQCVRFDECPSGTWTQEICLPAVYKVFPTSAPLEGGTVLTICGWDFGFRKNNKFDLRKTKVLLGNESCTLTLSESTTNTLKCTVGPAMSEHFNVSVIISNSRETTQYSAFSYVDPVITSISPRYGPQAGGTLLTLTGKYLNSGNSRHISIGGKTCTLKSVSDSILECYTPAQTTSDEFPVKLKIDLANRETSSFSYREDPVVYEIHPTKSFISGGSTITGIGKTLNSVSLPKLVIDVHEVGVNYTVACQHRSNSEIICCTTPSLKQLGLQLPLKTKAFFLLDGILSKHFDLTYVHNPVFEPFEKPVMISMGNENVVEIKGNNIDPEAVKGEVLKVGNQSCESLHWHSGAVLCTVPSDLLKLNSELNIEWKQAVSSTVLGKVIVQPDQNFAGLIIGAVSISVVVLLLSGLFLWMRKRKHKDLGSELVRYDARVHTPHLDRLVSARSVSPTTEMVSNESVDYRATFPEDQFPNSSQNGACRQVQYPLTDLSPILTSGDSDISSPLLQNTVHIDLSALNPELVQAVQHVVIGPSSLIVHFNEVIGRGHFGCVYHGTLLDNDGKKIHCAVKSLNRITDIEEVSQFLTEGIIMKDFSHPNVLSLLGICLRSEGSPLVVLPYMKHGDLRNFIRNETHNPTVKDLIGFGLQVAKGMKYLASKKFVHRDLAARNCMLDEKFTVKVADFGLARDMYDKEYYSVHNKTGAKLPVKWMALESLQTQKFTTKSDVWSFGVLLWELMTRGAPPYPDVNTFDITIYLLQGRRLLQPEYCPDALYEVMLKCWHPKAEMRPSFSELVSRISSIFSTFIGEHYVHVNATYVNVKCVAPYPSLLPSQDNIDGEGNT
The target of series [28] is Voltage-gated inwardly rectifying potassium channel KCNH2 (Homo sapiens, UniProt Q12809). Description: Inhibition of hERG expressed in HEK293 cells by whole-cell patch clamp technique. It counts as toxicity, cell-based.
Chain of Voltage-gated inwardly rectifying potassium channel KCNH2 (Q12809 whole entry): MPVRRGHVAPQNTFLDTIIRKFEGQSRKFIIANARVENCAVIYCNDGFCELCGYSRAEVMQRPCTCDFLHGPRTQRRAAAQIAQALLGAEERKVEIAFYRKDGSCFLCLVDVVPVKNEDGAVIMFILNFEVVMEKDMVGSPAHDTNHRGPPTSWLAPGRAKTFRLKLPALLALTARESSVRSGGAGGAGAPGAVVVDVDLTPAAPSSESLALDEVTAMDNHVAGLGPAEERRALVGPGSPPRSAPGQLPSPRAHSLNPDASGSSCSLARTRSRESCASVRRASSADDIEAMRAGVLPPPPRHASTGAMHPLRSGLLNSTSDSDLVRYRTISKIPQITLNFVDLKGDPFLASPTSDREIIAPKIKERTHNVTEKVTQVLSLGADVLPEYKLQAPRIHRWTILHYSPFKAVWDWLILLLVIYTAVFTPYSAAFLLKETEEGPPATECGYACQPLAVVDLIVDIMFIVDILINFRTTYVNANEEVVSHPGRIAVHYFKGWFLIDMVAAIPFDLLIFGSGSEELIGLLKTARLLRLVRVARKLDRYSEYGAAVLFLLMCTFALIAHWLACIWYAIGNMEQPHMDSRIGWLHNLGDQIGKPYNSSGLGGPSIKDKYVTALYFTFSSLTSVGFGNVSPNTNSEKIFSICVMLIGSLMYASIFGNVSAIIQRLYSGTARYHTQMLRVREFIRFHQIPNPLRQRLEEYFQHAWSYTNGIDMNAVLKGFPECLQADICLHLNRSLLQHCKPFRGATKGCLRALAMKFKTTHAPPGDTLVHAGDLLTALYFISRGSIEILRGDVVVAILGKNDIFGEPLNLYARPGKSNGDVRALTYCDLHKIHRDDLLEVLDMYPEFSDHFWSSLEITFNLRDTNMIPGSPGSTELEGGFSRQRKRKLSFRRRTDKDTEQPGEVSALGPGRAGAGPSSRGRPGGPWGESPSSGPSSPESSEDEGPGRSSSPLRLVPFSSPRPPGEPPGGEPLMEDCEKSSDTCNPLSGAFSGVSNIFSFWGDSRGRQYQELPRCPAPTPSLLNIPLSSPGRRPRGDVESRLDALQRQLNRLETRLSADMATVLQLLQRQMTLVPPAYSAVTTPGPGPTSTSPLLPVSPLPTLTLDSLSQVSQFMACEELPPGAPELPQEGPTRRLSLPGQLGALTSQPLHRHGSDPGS
Series [29] in a line: MRT (0 to t) in Sprague-Dawley rat at 10 mg/kg, ip measured for 24 hrs by LC-MS/MS analysis. It counts as ADME, organism-based. The conditions noted are these: in vivo.
For series [30], the target named is T1, Hepatocyte growth factor receptor. Description: Inhibition of N-terminal His/SUMO tagged wild type human c-Met (1038 to 1346 residues) transfected in Escherichia coli using Tyr06 peptide as substrate incubated for 1 hr in presence of ATP by FRET-based Z'-Lyte assay.
Series [31] in a line: Half life in Sprague-Dawley rat at 10 mg/kg, po measured for 24 hrs by LC-MS/MS analysis. The series is classed as ADME, organism-based. The conditions noted are these: in vivo.
Series [32] can be described thus: Cmax in Sprague-Dawley rat at 10 mg/kg, ip measured for 24 hrs by LC-MS/MS analysis. The series is classed as ADME, organism-based. On the set-up: time 24 hrs, dose 10 mg/kg, route ip. The conditions noted are these: in vivo.
Series [33] has as its target Cytochrome P450 2C9 (Homo sapiens, UniProt P11712). Description: Inhibition of CYP2C9 (unknown origin) in microsomes preincubated for 5 mins followed by NADPH addition by LC-MS/MS analysis. The series is classed as ADME, Microsome.
Series [34] is described as follows: Apparent volume of distribution in Sprague-Dawley rat at 2 mg/kg, iv measured for 24 hrs by LC-MS/MS analysis. The conditions noted are these: in vivo, read-out: Vz. It counts as ADME, organism-based.
Series [35] in a line: Tmax in Sprague-Dawley rat at 10 mg/kg, ip measured for 24 hrs by LC-MS/MS analysis. The settings on record: in vivo. It counts as ADME, organism-based.
The subject of series [36] is BaF3. In words: Induction of apoptosis in mouse BaF3 cells harboring wild type Tpr-Met fusion protein assessed as viable cells at 40 nM incubated for 48 hrs by Annexin V/7-AAD staining based flow cytometry analysis (reference value: 89.76%). It counts as functional. The settings on record: read-out: Activity.
The nature of series [37]: Bioavailability in Sprague-Dawley rat at 10 mg/kg, ip measured for 24 hrs by LC-MS/MS analysis. The series is classed as ADME, organism-based. The conditions noted are these: in vivo.
A short description of series [38]: Tmax in Sprague-Dawley rat at 10 mg/kg, po measured for 24 hrs by LC-MS/MS analysis. It counts as ADME, organism-based. The conditions noted are these: in vivo.
The target of series [39] is T2, Tyrosine-protein kinase receptor UFO (Homo sapiens, UniProt P30530).
T2 sequence (P30530 whole entry): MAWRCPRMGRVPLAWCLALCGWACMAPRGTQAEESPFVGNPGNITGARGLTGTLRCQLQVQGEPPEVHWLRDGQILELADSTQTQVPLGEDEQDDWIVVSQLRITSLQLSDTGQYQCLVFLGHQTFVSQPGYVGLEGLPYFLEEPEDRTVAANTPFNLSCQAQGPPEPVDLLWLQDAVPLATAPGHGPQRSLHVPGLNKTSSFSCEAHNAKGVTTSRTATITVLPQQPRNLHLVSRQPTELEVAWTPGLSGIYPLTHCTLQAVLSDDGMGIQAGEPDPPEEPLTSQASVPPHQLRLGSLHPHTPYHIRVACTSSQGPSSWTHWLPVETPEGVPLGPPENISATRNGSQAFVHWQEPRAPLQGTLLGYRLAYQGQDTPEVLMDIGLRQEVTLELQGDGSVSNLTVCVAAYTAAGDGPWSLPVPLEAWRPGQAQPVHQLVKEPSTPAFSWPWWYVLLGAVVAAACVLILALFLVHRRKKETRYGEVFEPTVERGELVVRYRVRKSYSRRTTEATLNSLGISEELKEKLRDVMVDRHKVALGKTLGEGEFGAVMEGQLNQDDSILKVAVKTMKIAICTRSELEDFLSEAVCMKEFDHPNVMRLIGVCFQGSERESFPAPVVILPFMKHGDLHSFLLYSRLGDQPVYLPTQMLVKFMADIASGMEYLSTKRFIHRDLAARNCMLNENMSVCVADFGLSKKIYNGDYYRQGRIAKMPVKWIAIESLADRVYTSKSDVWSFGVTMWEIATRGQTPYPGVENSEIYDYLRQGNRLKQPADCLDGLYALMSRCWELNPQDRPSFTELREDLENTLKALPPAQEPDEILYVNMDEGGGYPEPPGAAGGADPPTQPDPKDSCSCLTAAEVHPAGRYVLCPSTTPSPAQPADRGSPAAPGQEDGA
In words: Inhibition of AXL (unknown origin).

Series [40] in a line: Apparent permeability across apical to basolateral side in human Caco-2 cells at 10 uM incubated for 120 mins by LC-MS/MS analysis. It counts as ADME, cell-based. In general terms: Passage across Caco-2 layers is used to estimate intestinal permeability.
Series [41] can be described thus: AUC(0 to t) in Sprague-Dawley rat at 10 mg/kg, po measured for 24 hrs by LC-MS/MS analysis. On the set-up: time 24 hrs, dose 10 mg/kg, route po. The series is classed as ADME, organism-based. The conditions noted are these: in vivo.
The target in series [42] is Cytochrome P450 3A4 (Homo sapiens, UniProt P08684). In words: Inhibition of CYP3A4 (unknown origin) in microsomes sing testosterone as a substrate preincubated for 5 mins followed by NADPH addition by LC-MS/MS analysis. It counts as ADME, Microsome.
Chain of Cytochrome P450 3A4 (P08684 whole entry): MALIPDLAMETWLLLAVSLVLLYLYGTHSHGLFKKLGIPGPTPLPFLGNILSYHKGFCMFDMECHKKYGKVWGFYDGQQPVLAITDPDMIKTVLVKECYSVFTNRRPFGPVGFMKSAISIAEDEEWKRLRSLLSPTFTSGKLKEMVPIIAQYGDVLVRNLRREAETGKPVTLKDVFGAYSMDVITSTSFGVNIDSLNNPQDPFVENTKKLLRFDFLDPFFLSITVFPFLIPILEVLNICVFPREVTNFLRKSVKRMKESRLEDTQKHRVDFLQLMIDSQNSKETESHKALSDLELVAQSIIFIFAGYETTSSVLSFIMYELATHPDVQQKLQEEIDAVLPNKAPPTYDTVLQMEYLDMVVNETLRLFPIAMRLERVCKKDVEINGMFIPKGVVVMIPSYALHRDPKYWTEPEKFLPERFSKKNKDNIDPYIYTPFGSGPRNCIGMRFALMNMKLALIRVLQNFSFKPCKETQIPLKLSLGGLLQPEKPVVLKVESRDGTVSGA

Chain of Cytochrome P450 2C9 (P11712 whole entry): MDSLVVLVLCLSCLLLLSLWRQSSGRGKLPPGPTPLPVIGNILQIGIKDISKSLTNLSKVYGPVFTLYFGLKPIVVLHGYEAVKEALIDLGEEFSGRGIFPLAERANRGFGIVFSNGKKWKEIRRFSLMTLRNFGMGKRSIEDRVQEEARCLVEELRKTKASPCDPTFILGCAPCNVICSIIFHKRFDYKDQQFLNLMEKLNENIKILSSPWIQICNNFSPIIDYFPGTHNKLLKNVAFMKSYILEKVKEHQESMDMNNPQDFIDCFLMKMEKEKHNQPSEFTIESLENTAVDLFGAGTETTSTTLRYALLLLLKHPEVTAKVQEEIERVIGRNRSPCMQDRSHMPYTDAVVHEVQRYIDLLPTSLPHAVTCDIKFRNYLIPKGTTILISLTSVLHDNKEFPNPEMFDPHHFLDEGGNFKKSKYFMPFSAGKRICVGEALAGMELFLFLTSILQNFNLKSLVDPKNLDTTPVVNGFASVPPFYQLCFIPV

Take `CN1CCC(COc2cnc(-c3cccc(Cn4nc(-c5cccc(C#N)c5)ccc4=O)c3)nc2)CC1` [TEPOTINIB]: the 50% inhibitory concentration (IC50) in series [1] amounted to 0.0366 µM; in series [2] it was 0.0015 µM; in series [3] it was 3.06 µM; in [4], 0.0045 µM; in series [5], 1.45 µM; in series [6], 0.363 µM. The half-maximal inhibitory concentration (IC50) in series [7] is 2.39 µM; in series [8], 0.0025 µM; in series [9] it was 0.01 µM; in series [10], 0.0467 µM; in series [11] it was 0.0088 µM.
As to `O=C1NCCCCn2cc(cn2)-c2cnc3ccc(cc3c2)CCn2nc(ccc2=O)-c2ccc1c(C(F)(F)F)c2`, the half-life in series [12] is 278 min; in [26], 34.2 min; in [31], 149 min. Further, the MRT last at 24 h in series [13] is 103 min; in series [21] it was 21.6 min; in series [29], 204 min. Further, in series [14], the viability at 0.01 µM was 87%. Besides, the Cmax in series [15] was 0.061 µg/mL; in [16] it was 1.07 µg/mL; in series [32] it was 0.282 µg/mL. Further, the IC50 in [17] was > 10 µM; in series [28], 27.7 µM; in series [30], 0.0029 µM; in [33], > 10 µM; in series [39], 0.401 µM; in series [42], > 10 µM. In addition, the inhibition result in [18] and in series [27] was “Dde” in each case. This molecule showed a clearance in [19] of 4.21 L/h/kg. Further, the viability at 0.02 µM in series [20] was 75.4%. For the same molecule, the AUC(0-t) at 24 h in series [22] came to 0.82 µg·h/mL; in [23] it was 0.484 µg·h/mL; in series [41], 0.0489 µg·h/mL. For the same molecule, the bioavailability in series [24] stood at 2.02%; in series [37], 33.9%. Moreover, the time to peak (Tmax) is 4.8 min in [25], 15 min in series [35] and 15 min in series [38]. The Vd in series [34] is 3.47 L/kg. In addition, in series [36], the viability at 0.04 µM was found to be 42.9%. Further, the Papp A→B at 2 h, 10 µM in [40] was 5.3 nm/s.

As usually defined, the IC50 is the concentration at which inhibition is half-maximal. The term half-life denotes the time needed for the level to fall by half in the phase considered. The low end stands for rapid decline, the high end for slow decline. For orientation: MRT last means the average time that molecules of a dose stay in the body. As usually defined, the Cmax is the highest concentration seen after dosing. In general, clearance refers to the rate of elimination divided by the concentration. A word on the AUC(0-t): it is the area under the concentration-time curve up to a stated or last time point. Low readings indicate low exposure, high ones high exposure. As usually defined, the bioavailability is the share of a dose that reaches the circulation, judged against a reference dose that is usually intravenous. By Tmax is commonly meant the time at which the peak concentration occurs. One may read the Papp A→B as how fast a substance crosses the layer from the apical side.
